Experiment [1] concerns murine neocortical neurones. Kind of experiment: Assay for NMDA-induced toxicity in neuronal cultures (MTT). The experiment is classed as cell-based. Particulars: Mus musculus, NMDA 600 μM, 1 h, compound added 30 min prior, read-out: EC50 (inhibition of NMDA-induced toxicity). The protocol:
Neuronal cell death was assessed using a 3-(4,5-dimethylthiazol-2yl)-2,5-diphenyltetrazolium bromide (MTT) assay in which NMDA-induced cellular changes are reflected as altered mitochondrial activity (Ankarcrona et al., 1995), as estimated by the formation of a formazan dye, which is measured spectrophotometrically. The procedure employed is essentially that of Roehm et al. (1991) with minor modifications as previously described elsewhere in work from our laboratories Larm et al. (1996).
Primary cultures of murine neocortical neurones were established as described elsewhere (Larm et al., 1996). The effects of experimental compounds were tested in the cultures at 8 days in vitro. Exposure to NMDA (600 μM, 1 h) and other compounds was performed in an humidified incubator (5% CO2, 8% O2) at 37° C. in anti-oxidant free medium with compounds under evaluation being added 30 min prior to NMDA. For these conditions the culture medium was modified by omitting the following components: D,L-α-tocopherol, D,L-α-tocopherol acetate, catalase, superoxide dismutase and L-glutamine. Other details are described in Larm et al. (1996). Absorbance was read at 570 nm using a Ceres UV900 microplate reader. Control cultures were included in each experiment containing either vehicle alone or vehicle plus compound. These controls were taken as 100% neuronal viability, under the experimental conditions, and each experiment also included 500 μM L-glutamate representing 100% glutamatergic neuronal cell death. Background cell death in vehicle control cultures was 5-8%.
Concentration-response curves were generated as described elsewhere (Larm et al., 1996).

Experiment [2] relates to lipid peroxidation (MDA formation) in rat brain homogenate. Kind of experiment: Antioxidant assay: Fe3+-stimulated lipid peroxidation (TBARs / MDA formation) in rat brain homogenate. Format: biochemical. From the text: Lipid peroxidation has been assessed in the present study using two procedures adopted from that described by Ohkawa et al. (1979) and Cheng et al. (1994). The compounds of the present invention have shown significant antioxidant effect in both assay systems.
Malondialdehyde (MDA) is one of the breakdown products of lipid peroxidation. MDA reacts with thiobarbituric acid (TBA) to produce a characteristic pink colour that can be measured spectrophotomerically. […] The present method has been modified from those described by Ohkawa et al. (1979) and Cheng et al. (1994).
Briefly, rat brain 10% homogenates were prepared in aqueous 20 mM Tris-HCl buffer, pH 7.4 media using a Polytron homogeniser. Assays contained 100 μl of rat brain homogenate and various concentrations of test compound (10 μl) were incubated for 10 min at 37° C. Ten μl of 1.0 or 0.1 mM Fe^3+ solution was then added to stimulate lipid peroxidation and the homogenates were incubated for a further 30 min at 37° C. The reaction was stopped by addition of sodium dodecyl sulphate (100 μl of 8.1% wt/vol solution) and 750 μl of 20% sodium acetate buffer (pH 3.5). The precipitated proteins were then removed by centrifugation at 10000 g for 15 min. Five hundred μl of clear supernatant was heated with 1 ml TBA solution (0.8% wt/vol) at 95° C. for 60 min. The samples were cooled and 200 μl of each sample was pipetted into a 96 well plate and absorbencies read at 532 nm using a Ceres UV900C microplate reader. Blank values representing samples containing 20 mM Tris-HCl and Fe^3+ only were subtracted from all values. Each value was expressed as a percentage of that for samples containing homogenate and Fe^3+ only (ie, no drug). From concentration response curves the concentrations causing 50% inhibition of MDA formation (IC50 values) for the test compounds were determined by computer-assisted linear regression analysis according to published methods (Leutner, 1982). These compared favourably with the values obtained in the assay with the benchmark antioxidant compound trolox. […]

Experiment [3] has as its target NMDA receptor-ionophore complex (polyamine-sensitive ifenprodil binding site). Nature of the experiment: NMDA assay: competitive binding against [125I]ifenprodil in rat cortical membranes. Particulars: 30 min, 20° C., pH 7.7. The procedure:
The NMDA receptor-ionophore complex consists of a number of interacting domains, including one for polyamines where ifenprodil binds to exert its non-competitive antagonism.
The purified material was stored in methanol at -20° C.
Incubations were for 30 min. at 20° C., in triplicate, employing 12 concentrations of competing drugs. Non-specific binding was defined with 10 mM spermine. Assays were terminated by rapid filtration through GF/B filter paper and washing.

For experiment [4], the system named is polyamine sensitive binding site of the NMDA receptor complex. The settings on record: Carter et al., Reynolds et al., Robinson et al.; cited from earlier work.
The conditions of experiment [5]: Gotti et al., 1988; cited from earlier work.
Where [6] appears, read: Fe^3+ 100 μM, read-out: ~IC50 (inhibition of MDA formation), Fe^3+ 100 μM.
The mark [7] stands for this setting: Fe^3+ 1000 μM, read-out: ~IC50 (inhibition of MDA formation), Fe^3+ 1000 μM.

Like-named read-outs stand apart in the source and are kept apart here.

Turning to `C[C@@H]([C@H](O)c1ccc(O)cc1)N1CCN(Cc2cc(C(C)(C)C)c(O)c(C(C)(C)C)c2)CC1` (relative stereo), in experiment [1], the EC50 is 3.01 µM.
For the compound `C[C@H]([C@H](O)c1ccc(O)cc1)N1CCN(Cc2cc(C(C)(C)C)c(O)c(C(C)(C)C)c2)CC1` (relative stereo) [2 ((R, R)-racemic)], the IC50 in experiment [2] (setting [6]) was about 16.8 µM; in experiment [2] (setting [7]) it was about 14.9 µM. Moreover, the affinity in experiment [3] corresponds to a Ki of 15.7 ± 4.6 µM.
On the same counts, the results for `C[C@@H]([C@H](O)c1ccc(O)cc1)N1CCN(Cc2cc(C(C)(C)C)c(O)c(C(C)(C)C)c2)CC1` (relative stereo) [2 ((R, S)-racemic)] are about 23.8 µM, about 24.1 µM and 14.5 ± 5.6 µM.
Turning to `C[C@H]([C@H](O)c1ccc(O)cc1)N1CCN(Cc2cc(C(C)(C)C)c(O)c(C(C)(C)C)c2)CC1` (relative stereo) [Compound 2 ((R, R)-racemic)], the EC50 in experiment [1] stood at 1.28 µM.
For the compound `CC(C)(C)c1cc(CN2CCN(CC(O)c3ccc(O)cc3)CC2)cc(C(C)(C)C)c1O` (stereo not drawn) [Compound 1, 1-(2-(4-hydroxyphenyl)-2-hydroxy)ethyl-4-(3,5-bis(1,1-dimethylethyl)-4-hydroxyphenyl)methylpiperazine], the IC50 in experiment [2] (setting [6]) is about 32.7 µM; in experiment [2] (setting [7]) it was about 18.3 µM. In experiment [3], this compound showed an inhibition constant (Ki) of 13 ± 0.6 µM.
Take `CC(C)(C)c1cc(CN2CCN(CC(O)c3ccc(Cl)cc3)CC2)cc(C(C)(C)C)c1O` (stereo not drawn) [Compound 33, 1-(2-(4-Chlorophenyl)-2-hydroxy)ethyl-4-(3,5-bis(1,1-dimethylethyl)-4-hydroxyphenyl)methylpiperazine]: the EC50 in experiment [1] was 0.39 µM. In addition, the IC50 in experiment [2] (setting [6]) is about 57.2 µM; in experiment [2] (setting [7]), about 41.4 µM. For the same compound, the Ki in experiment [3] was found to be 10.8 ± 0.6 µM.
Turning to `CC(C(O)c1ccc(Cl)cc1)N1CCN(Cc2cc(C(C)(C)C)c(O)c(C(C)(C)C)c2)CC1` (stereo not drawn) [Compound 34, 1-(2-(4-Chlorophenyl)-2-hydroxy-1-methyl)ethyl-4-(3,5-bis(1,1-dimethylethyl)-4-hydroxyphenyl)methylpiperazine], the results for the IC50 in experiment [2] (setting [6]) and in experiment [2] (setting [7]) were about 25.4 µM and about 36.3 µM, respectively. The compound also registered an inhibitory constant (Ki) in experiment [3] of 14.6 ± 2.8 µM.
As to `CC(C)(C)c1cc(CN2CCN(CCC(O)c3ccc(Cl)cc3)CC2)cc(C(C)(C)C)c1O` (stereo not drawn) [Compound 35, 1-(3-(4-Chlorophenyl)-3-hydroxy)propyl-4-(3,5-bis(1,1-dimethylethyl)-4-hydroxyphenyl)methylpiperazine], the IC50 in experiment [2] (setting [6]) is about 27.9 µM; in experiment [2] (setting [7]) it was about 9.3 µM. In addition, the affinity in experiment [3] corresponds to a Ki of 16.8 ± 3.2 µM.
For the compound `Cc1c(C)c2c(c(C)c1O)CCC(C)(CN1CCN(CC(O)c3ccc(Cl)cc3)CC1)O2` (stereo not drawn) [Compound 49], the EC50 in experiment [1] was found to be 2.9 µM. Besides, the values for the IC50 in experiment [2] (setting [6]) and in experiment [2] (setting [7]) were about 3.6 µM and about 2.4 µM, respectively. For the same compound, the Ki in experiment [3] was 15.2 ± 3.9 µM.
The corresponding values for `CC(C)(C)c1cc(CN2CCN(CC(O)c3ccc(Br)cc3)CC2)cc(C(C)(C)C)c1O` (stereo not drawn) [Compound 65, 1-(2-(4-bromophenyl)-2-hydroxy)ethyl-4-(3,5-bis(1,1-dimethylethyl)-4-hydroxyphenyl)methylpiperazine] are 0.24 µM, about 96.8 µM, about 53.3 µM and 7 ± 1.5 µM.
For the compound `CC(C)(C)c1cc(CN2CCN(CC(O)c3ccc(F)cc3)CC2)cc(C(C)(C)C)c1O` (stereo not drawn) [Compound 161, 1-(2-(4-fluorophenyl)-2-hydroxy)ethyl-4-(3,5-bis(1,1-dimethylethyl)-4-hydroxyphenyl)methylpiperazine], the IC50 was about 19.5 µM in experiment [2] (setting [6]) and about 15.2 µM in experiment [2] (setting [7]). This compound gave an inhibition constant (Ki) in experiment [3] of 5.4 ± 0.6 µM.
As for `CC(C)(C)c1cc(CN2CCN(CC(O)c3ccc(OC(F)(F)F)cc3)CC2)cc(C(C)(C)C)c1O` (stereo not drawn) [Compound 193, 1-(2-(4-trifluoromethoxyphenyl)-2-hydroxy)ethyl-4-(3,5-bis(1,1-dimethylethyl)-4-hydroxyphenyl)methylpiperazine], the IC50 is about 59.6 µM in experiment [2] (setting [6]) and about 22.3 µM in experiment [2] (setting [7]). This compound also returned a Ki in experiment [3] of 11.7 ± 1 µM.
Consider `CC(C)(C)c1cc(CN2CCN(CC(O)c3ccc4c(c3)OCO4)CC2)cc(C(C)(C)C)c1O` (stereo not drawn) [Compound 211, 1-(2-(3,4-methylenedioxyphenyl)-2-hydroxy)ethyl-4-(3,5-bis(1,1-dimethylethyl)-4-hydroxyphenyl)methyl piperazine], for which the affinity in experiment [3], expressed as Ki, was 19.1 ± 5.7 µM.
The same measure, in the same setting: next, `CC(C)(C)c1cc(CN2CCN(CC(O)c3ccc(Cl)s3)CC2)cc(C(C)(C)C)c1O` (stereo not drawn) [Compound 229, 1-(2-(2-chlorothiophen-5-yl)-2-hydroxy)ethyl-4-(3,5-bis(1,1-dimethylethyl)-4-hydroxyphenyl)methylpiperazine]: 19.6 ± 5.2 µM.
Consider `COc1ccc(OC)c(C(O)CN2CCN(Cc3cc(C(C)(C)C)c(O)c(C(C)(C)C)c3)CC2)c1` (stereo not drawn) [Compound 247, 1-(2-(2,5-dimethoxyphenyl)-2-hydroxy)ethyl-4-(3,5-bis(1,1-dimethylethyl)-4-hydroxyphenyl)methylpiperazine], for which the IC50 in experiment [2] (setting [6]) was about 9.9 µM; in experiment [2] (setting [7]), about 10.3 µM. Moreover, in experiment [3], the Ki was determined as 8.5 ± 3.1 µM.
On to `Cc1cc(CN2CCN(CC(O)c3ccc(Cl)cc3)CC2)cc(C(C)(C)C)c1O` (stereo not drawn) [Compound 265, 1-(2-(4-chlorophenyl)-2-hydroxy)ethyl-4-(3-(1,1-dimethylethyl)-4-hydroxy-5-methylphenyl)methylpiperazine], for which the values for the IC50 in experiment [2] (setting [6]) and in experiment [2] (setting [7]) were about 59.4 µM and about 38.5 µM, respectively. For the same compound, in experiment [3], the affinity corresponds to a Ki of 13.2 ± 2.6 µM.
The corresponding values for `CC(C)(C)c1cc(CN2CCN(CC(O)c3cccc([N+](=O)[O-])c3)CC2)cc(C(C)(C)C)c1O` (stereo not drawn) [Example 6, 1-(2-(3-nitrophenyl)-2-hydroxy)ethyl-4-(3,5-bis(1,1-dimethylethyl)-4-hydroxyphenyl)methyl piperazine] are about 32.4 µM, about 26.6 µM and 15.1 ± 6.1 µM.
With `CC(C)(C)c1cc(CN2CCN(CC(O)c3cccc(Cl)c3)CC2)cc(C(C)(C)C)c1O` (stereo not drawn) [Example 12, 1-(2-(3-chlorophenyl)-2-hydroxy)ethyl-4-(3,5-bis(1,1-dimethylethyl)-4-hydroxyphenyl)methylpiperazine], the EC50 in experiment [1] stood at 0.76 µM.
`Cc1cc(OCCN2CCN(CC(O)c3ccc(Cl)cc3)CC2)c(C)c(C)c1O` (stereo not drawn) [Example 21, 1-(2-(4'-chlorophenyl)-2-hydroxy)ethyl-4-(2-(2', 3', 5'-trimethyl-4'-hydroxyphenoxy))ethyl piperazine]: the IC50 in experiment [2] (setting [6]) is under 3 µM; in experiment [2] (setting [7]) it was under 1 µM. The same compound came in with a Ki in experiment [3] of 6.1 ± 2 µM.
On to `OC(CN1CCC(Cc2ccc(F)cc2)CC1)c1ccc(Cl)cc1` (stereo not drawn) [eliprodil], for which the “interaction with the polyamine sensitive site of the NMDA receptor complex” value in experiment [4] was “interacting with the polyamine sensitive binding site of the NMDA receptor”. For the same compound, the “neuroprotective properties / antiischaemic” value in experiment [5] is “neuroprotective properties in models of neurodegeneration following ischaemia”.
For `Cc1c(C)c2c(c(C)c1O)CCC(C)(C(=O)O)O2` (stereo not drawn) [trolox, reference compound], the IC50 in experiment [2] (setting [6]) was about 88.2 µM; in experiment [2] (setting [7]), about 90.8 µM.

As a reminder, the EC50 is the concentration needed to bring the measured effect to its halfway point. For orientation: IC50 means the concentration at which inhibition is half-maximal. By Ki is commonly meant a measure of affinity in units of concentration, obtained from inhibition or displacement. A high value points to lower affinity.

The values are drawn from US6232314A, “Arylalkylpiperazine compounds as antioxidants” (Monash University, priority 1996, dated 2001).
